According to ChEMBL document CHEMBL4507298 (2021):

Tests used:
[1] = target: T1, GABA-A receptor; anion channel (Rattus norvegicus) (UniProt O09028+P15431+P18506+P18508+P19969+P20236+P23574+P23576+P28471+P28473+P30191+P62813+P63079+P63138+Q91ZM7+Q9ES14); conditions: Compound concentration 10.0 uM
[2] = target: Sodium-dependent serotonin transporter (Homo sapiens) (UniProt P31645); conditions: Compound concentration 10.0 uM
[3] = target: T2, Alpha-2C adrenergic receptor (Homo sapiens) (UniProt P18825); conditions: Compound concentration 10.0 uM
T2 sequence (whole entry): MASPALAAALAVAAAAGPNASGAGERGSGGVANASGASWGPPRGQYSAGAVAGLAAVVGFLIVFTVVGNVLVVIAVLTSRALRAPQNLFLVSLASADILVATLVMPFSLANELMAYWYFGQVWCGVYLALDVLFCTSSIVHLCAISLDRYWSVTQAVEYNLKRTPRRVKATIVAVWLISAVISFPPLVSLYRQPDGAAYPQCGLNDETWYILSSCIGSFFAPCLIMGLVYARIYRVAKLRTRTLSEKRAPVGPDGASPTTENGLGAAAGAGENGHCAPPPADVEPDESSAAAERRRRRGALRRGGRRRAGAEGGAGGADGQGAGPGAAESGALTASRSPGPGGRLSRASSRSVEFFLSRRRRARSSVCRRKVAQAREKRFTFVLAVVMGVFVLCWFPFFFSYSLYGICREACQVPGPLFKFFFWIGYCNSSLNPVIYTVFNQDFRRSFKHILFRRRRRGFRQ

[4] = target: MAP kinase-interacting serine/threonine-protein kinase 2 (Homo sapiens) (UniProt Q9HBH9); conditions: Compound concentration 1000.0 nM
[5] = target: 5-hydroxytryptamine receptor 2B (Homo sapiens) (UniProt P41595); conditions: Compound concentration 10.0 uM
5-hydroxytryptamine receptor 2B (Homo sapiens), sequence (P41595 whole entry): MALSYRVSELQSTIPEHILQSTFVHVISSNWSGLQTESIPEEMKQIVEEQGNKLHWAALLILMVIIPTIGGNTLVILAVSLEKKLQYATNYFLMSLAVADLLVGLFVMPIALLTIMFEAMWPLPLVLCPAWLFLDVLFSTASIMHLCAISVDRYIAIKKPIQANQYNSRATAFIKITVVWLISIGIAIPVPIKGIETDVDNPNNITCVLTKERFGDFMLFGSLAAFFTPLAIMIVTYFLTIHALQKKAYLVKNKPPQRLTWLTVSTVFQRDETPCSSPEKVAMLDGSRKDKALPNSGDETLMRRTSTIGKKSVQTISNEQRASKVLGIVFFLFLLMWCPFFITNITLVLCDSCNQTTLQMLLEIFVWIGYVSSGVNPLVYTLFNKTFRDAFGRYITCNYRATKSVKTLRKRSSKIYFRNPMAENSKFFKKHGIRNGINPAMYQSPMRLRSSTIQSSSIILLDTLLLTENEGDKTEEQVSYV

[6] = target: Vasopressin V1a receptor (Homo sapiens) (UniProt P37288); assay: V1a (h) CEREP ligand profiling; conditions: Compound concentration 10.0 uM
Vasopressin V1a receptor (Homo sapiens), sequence (P37288 whole entry, looked up): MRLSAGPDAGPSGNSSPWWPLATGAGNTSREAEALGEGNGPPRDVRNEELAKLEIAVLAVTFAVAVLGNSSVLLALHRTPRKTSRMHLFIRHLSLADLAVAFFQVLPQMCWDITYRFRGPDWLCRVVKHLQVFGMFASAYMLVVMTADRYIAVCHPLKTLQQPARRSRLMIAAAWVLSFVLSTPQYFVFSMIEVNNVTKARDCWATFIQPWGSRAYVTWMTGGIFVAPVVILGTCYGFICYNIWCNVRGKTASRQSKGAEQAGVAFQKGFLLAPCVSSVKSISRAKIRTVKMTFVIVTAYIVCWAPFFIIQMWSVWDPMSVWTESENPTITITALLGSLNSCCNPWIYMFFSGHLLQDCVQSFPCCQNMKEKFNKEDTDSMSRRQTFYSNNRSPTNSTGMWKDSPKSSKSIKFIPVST

[7] = target: T1, GABA-A receptor; anion channel (Rattus norvegicus); conditions: Compound concentration 10.0 uM; remark: listed apart in the source
[8] = target: Sigma intracellular receptor 2 (Homo sapiens) (UniProt Q5BJF2); conditions: Compound concentration 10.0 uM
Sigma intracellular receptor 2 (Homo sapiens), sequence (Q5BJF2 whole entry): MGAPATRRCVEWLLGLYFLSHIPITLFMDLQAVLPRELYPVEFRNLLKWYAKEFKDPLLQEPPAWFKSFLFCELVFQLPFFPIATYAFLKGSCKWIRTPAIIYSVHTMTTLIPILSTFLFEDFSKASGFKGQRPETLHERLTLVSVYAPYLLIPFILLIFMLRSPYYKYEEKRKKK

[9] = target: Alpha-1D adrenergic receptor (Homo sapiens) (UniProt P25100); conditions: Compound concentration 10.0 uM
Alpha-1D adrenergic receptor (Homo sapiens), sequence (P25100 whole entry): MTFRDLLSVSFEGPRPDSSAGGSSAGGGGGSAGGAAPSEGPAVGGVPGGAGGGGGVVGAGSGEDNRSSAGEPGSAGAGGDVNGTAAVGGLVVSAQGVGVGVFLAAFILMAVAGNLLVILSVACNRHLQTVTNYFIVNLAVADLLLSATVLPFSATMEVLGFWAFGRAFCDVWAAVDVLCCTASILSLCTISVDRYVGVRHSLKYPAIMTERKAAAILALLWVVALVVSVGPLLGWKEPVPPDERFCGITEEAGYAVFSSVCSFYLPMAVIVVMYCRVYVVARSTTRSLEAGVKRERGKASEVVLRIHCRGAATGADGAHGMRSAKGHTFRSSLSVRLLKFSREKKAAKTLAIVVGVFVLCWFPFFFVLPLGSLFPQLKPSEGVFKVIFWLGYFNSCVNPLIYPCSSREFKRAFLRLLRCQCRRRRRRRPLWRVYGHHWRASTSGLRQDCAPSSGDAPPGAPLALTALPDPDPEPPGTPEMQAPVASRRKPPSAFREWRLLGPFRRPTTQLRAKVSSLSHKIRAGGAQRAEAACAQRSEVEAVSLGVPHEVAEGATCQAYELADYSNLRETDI

[10] = target: Serine/threonine-protein kinase ULK3 (Homo sapiens) (UniProt Q6PHR2); conditions: Compound concentration 1000.0 nM
Serine/threonine-protein kinase ULK3 (Homo sapiens), sequence (Q6PHR2 whole entry): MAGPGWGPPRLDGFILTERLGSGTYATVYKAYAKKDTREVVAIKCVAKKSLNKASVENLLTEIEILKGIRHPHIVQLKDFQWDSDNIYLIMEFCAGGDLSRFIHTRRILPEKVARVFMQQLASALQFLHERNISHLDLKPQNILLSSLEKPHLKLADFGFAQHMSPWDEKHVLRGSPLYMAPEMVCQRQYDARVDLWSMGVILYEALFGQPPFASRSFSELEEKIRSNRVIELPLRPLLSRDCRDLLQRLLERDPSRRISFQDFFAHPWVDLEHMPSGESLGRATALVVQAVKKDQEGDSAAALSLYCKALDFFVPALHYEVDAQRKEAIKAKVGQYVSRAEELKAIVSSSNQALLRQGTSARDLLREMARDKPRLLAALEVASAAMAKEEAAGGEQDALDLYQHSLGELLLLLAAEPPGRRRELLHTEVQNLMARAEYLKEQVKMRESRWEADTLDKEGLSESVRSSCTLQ

[11] = target: T3, Alpha-2B adrenergic receptor (Homo sapiens) (UniProt P18089); conditions: Compound concentration 10.0 uM
T3 sequence (whole entry): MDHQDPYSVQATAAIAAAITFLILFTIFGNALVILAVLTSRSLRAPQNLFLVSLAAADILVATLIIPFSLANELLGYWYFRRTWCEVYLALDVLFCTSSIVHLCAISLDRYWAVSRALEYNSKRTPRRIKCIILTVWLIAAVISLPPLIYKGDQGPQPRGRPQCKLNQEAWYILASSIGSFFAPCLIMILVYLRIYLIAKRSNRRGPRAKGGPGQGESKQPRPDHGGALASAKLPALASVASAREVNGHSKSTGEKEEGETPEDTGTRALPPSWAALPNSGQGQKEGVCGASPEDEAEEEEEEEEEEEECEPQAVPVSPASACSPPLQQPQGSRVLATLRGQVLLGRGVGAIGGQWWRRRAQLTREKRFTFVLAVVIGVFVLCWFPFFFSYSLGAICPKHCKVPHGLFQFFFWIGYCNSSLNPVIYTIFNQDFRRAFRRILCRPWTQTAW

[12] = target: Bone morphogenetic protein receptor type-1A (Homo sapiens) (UniProt P36894); conditions: Compound concentration 1000.0 nM
[13] = target: T4, Muscarinic acetylcholine receptor M2 (Homo sapiens) (UniProt P08172); conditions: Compound concentration 10.0 uM
T4 sequence (whole entry): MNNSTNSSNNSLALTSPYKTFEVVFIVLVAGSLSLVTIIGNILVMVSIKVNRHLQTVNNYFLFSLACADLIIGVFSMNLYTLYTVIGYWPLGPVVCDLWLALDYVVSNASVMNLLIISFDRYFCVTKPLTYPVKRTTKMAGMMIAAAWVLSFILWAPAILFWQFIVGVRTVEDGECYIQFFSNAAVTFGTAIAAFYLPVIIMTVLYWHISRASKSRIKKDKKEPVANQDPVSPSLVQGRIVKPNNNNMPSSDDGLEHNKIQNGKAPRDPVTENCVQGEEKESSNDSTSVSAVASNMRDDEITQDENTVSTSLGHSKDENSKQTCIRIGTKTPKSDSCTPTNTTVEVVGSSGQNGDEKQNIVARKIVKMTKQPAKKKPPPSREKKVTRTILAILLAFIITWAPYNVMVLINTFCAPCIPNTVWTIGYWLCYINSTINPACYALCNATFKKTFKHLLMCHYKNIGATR

[14] = target: D(3) dopamine receptor (Homo sapiens) (UniProt P35462); conditions: Compound concentration 10.0 uM
D(3) dopamine receptor (Homo sapiens), sequence (P35462 whole entry): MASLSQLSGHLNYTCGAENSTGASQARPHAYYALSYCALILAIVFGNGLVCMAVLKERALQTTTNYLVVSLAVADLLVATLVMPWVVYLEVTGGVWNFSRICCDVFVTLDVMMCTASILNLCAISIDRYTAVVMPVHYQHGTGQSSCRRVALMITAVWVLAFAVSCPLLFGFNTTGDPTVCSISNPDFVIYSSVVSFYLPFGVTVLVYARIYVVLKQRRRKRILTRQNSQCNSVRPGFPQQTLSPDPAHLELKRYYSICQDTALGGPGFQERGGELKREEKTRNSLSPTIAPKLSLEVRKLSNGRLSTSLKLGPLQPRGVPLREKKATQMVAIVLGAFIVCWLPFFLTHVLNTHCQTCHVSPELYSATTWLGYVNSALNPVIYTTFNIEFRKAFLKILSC

[15] = target: T5, 5-hydroxytryptamine receptor 2C (Homo sapiens) (UniProt P28335); conditions: Compound concentration 10.0 uM
T5 sequence (whole entry): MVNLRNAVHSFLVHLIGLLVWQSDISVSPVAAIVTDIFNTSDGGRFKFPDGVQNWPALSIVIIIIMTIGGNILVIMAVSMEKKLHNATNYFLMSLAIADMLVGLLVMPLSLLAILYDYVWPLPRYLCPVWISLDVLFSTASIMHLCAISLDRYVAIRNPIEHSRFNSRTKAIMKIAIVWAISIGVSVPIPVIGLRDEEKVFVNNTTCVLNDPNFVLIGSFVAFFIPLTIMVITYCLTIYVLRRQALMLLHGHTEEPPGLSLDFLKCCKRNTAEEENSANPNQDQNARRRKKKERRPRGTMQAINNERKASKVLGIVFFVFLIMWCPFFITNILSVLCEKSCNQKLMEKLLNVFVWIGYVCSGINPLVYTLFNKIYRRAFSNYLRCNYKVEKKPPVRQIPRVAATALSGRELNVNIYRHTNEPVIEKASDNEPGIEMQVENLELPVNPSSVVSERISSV

[16] = target: 5-hydroxytryptamine receptor 1E (Homo sapiens) (UniProt P28566); conditions: Compound concentration 10.0 uM
5-hydroxytryptamine receptor 1E (Homo sapiens), sequence (P28566 whole entry): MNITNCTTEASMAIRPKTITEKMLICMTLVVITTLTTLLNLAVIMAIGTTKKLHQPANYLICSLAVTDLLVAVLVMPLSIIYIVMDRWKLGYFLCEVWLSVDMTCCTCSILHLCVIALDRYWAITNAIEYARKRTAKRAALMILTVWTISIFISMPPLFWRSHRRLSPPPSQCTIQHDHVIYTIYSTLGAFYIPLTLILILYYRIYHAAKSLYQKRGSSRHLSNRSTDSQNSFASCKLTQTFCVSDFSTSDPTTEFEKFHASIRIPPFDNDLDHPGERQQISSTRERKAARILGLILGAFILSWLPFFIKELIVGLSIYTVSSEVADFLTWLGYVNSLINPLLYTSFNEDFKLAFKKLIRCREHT

[17] = target: Serine/threonine-protein kinase 38-like (Homo sapiens) (UniProt Q9Y2H1); conditions: Compound concentration 1000.0 nM
Serine/threonine-protein kinase 38-like (Homo sapiens), sequence (Q9Y2H1 2-464 limits assumed): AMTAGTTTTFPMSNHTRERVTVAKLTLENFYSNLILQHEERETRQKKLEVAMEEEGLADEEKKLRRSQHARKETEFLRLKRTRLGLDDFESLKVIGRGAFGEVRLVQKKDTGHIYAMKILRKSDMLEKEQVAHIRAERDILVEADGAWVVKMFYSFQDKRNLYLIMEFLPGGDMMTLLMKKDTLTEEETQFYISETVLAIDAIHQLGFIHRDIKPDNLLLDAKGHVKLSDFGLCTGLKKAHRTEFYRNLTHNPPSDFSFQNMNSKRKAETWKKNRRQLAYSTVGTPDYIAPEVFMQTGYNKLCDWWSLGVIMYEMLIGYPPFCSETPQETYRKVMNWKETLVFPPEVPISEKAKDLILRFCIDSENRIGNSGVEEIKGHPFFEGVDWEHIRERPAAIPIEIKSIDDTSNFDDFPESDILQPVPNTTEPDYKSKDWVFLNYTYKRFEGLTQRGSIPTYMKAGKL

[18] = target: Serine/threonine-protein kinase SIK1 (Homo sapiens) (UniProt P57059); conditions: Compound concentration 1000.0 nM
Serine/threonine-protein kinase SIK1 (Homo sapiens), sequence (P57059 whole entry): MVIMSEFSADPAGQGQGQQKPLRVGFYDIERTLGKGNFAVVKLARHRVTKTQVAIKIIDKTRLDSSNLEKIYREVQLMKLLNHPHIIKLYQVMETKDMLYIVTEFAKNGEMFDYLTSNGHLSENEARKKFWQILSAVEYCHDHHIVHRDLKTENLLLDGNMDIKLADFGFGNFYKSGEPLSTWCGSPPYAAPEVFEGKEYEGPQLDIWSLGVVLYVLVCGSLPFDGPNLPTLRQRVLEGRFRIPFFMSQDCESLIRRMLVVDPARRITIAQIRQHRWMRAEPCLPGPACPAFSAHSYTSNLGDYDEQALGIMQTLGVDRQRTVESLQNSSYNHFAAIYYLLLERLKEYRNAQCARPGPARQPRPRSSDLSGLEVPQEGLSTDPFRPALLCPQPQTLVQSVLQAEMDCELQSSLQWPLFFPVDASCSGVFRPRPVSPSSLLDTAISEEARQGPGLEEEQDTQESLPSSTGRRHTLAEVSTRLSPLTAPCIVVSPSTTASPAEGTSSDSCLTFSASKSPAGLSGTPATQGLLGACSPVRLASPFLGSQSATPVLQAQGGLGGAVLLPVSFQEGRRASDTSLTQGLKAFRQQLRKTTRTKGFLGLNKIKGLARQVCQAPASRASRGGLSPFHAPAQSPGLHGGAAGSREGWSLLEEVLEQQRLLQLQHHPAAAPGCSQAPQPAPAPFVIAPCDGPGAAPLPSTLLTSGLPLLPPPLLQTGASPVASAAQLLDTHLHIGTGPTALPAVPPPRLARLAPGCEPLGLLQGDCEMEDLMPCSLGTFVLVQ

Sodium-dependent serotonin transporter (Homo sapiens), sequence (P31645 whole entry, looked up): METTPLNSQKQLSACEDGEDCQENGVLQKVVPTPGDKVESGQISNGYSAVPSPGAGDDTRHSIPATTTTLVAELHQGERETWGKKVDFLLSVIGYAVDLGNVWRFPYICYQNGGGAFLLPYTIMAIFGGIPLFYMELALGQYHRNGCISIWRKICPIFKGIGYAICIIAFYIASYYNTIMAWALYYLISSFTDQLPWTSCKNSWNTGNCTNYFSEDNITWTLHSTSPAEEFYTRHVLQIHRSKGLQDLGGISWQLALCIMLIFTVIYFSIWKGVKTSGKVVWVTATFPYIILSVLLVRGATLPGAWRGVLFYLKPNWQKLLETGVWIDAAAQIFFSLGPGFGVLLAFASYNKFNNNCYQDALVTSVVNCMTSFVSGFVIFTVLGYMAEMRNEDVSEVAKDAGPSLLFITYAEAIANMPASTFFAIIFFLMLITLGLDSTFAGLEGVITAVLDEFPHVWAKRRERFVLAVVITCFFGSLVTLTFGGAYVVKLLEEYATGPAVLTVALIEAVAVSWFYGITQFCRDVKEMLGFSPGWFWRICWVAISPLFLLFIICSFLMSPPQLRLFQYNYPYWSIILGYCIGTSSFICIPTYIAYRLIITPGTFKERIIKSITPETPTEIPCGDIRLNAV

COc1ccc2cc(OCC3(C(=O)O)CN(C(=O)c4ccc(F)cc4)C3)ccc2c1 [PF-04418948]
inactive: inhibition [1] 18.7% | inhibition [2] -6.83% | inhibition [3] 9.72% | residual activity [4] 96% | inhibition [5] -0.11% | inhibition [6] -3% | inhibition [7] -1.97% | inhibition [8] -1.29% | inhibition [9] -3.76% | residual activity [10] 86% | inhibition [11] 9.24% | residual activity [12] 88% | inhibition [13] 16.7% | inhibition [14] 33% | inhibition [15] 12.3% | inhibition [16] 11% | residual activity [17] 86% | residual activity [18] 97%

O=C(c1ccc(F)cc1)N1CC(COc2ccc(Br)cc2)(C(=O)O)C1 [PF-04475866]
inactive: inhibition [1] -5.33% | inhibition [2] -6.29% | inhibition [3] 11.3% | inhibition [5] -2.5% | inhibition [7] -8.88% | inhibition [9] 5% | inhibition [11] 12.1% | inhibition [13] 26.7% | inhibition [14] 3.89% | inhibition [15] 30.2% | inhibition [16] 12.2%
